Experimental data from ChEMBL document CHEMBL4385603 (J Med Chem, 2019).
pKi: −log10 of the molar value.

Key:
[1] = biological target: T1, Induced myeloid leukemia cell differentiation protein Mcl-1 (Homo sapiens, UniProt Q07820)
Description: Inhibition of FITC-labeled Bim peptide binding to His6-tagged MBP-fused Mcl-1 (unknown origin) in presence of 1% fetal bovine serum by fluorescence polarization assay

[2] = biological target: T1, Induced myeloid leukemia cell differentiation protein Mcl-1; remark: listed apart in the source
Description: Inhibition of FITC-labeled Bim peptide binding to His6-tagged MBP-fused Mcl-1 (unknown origin) by fluorescence polarization assay

[3] = system: K562; test: cells; conditions: Homo sapiens, K562, 72 h
Description: Antiproliferative activity against Mcl1-insensitive human K562 cells assessed as cell growth inhibition after 72 hrs by Celltiter-glo luminescence assay

[4] = biological target: T1, Induced myeloid leukemia cell differentiation protein Mcl-1; remark: listed apart in the source
Description: Inhibition of FITC-labeled Bak peptide binding to MBP-fused Mcl-1 (unknown origin) measured after 3 hrs by TR-FRET assay

[5] = biological target: Bcl-2-like protein 1 (Homo sapiens, UniProt Q07817)
Bcl-2-like protein 1, sequence (Q07817 whole entry): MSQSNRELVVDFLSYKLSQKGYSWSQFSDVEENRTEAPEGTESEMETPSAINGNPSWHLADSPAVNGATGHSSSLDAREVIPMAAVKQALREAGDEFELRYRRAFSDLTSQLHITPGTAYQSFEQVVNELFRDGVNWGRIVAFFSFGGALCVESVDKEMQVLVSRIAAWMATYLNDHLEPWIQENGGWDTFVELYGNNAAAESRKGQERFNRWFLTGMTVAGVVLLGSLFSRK
Description: Inhibition of FITC-labeled Bak peptide binding to Bcl-xL (unknown origin) after 0.5 hrs by fluorescence polarization assay

[6] = system: NCI-H929; test: cells; conditions: Homo sapiens, NCI-H929, 72 h
Description: Antiproliferative activity against Mcl1-sensitive human NCI-H929 cells assessed as cell growth inhibition after 72 hrs by Celltiter-glo luminescence assay

[7] = biological target: Apoptosis regulator Bcl-2 (Homo sapiens, UniProt P10415)
Apoptosis regulator Bcl-2, sequence (P10415 whole entry): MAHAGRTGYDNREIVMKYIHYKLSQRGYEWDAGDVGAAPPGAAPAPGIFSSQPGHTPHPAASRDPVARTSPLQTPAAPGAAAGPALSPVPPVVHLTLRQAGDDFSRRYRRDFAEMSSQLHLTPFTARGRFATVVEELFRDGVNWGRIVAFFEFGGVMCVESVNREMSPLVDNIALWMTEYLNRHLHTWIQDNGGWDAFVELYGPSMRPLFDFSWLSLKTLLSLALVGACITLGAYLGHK
Description: Inhibition of FITC-labeled Bak peptide binding to Bcl-2 (unknown origin) after 0.5 hrs by fluorescence polarization assay

[8] = biological target: T1, Induced myeloid leukemia cell differentiation protein Mcl-1; remark: listed apart in the source
Description: Inhibition of FITC-labeled Bak peptide binding to MBP-fused Mcl-1 (unknown origin) measured after 3 hrs in presence of 1% fetal bovine serum by TR-FRET assay

T1 sequence (Q07820 whole entry): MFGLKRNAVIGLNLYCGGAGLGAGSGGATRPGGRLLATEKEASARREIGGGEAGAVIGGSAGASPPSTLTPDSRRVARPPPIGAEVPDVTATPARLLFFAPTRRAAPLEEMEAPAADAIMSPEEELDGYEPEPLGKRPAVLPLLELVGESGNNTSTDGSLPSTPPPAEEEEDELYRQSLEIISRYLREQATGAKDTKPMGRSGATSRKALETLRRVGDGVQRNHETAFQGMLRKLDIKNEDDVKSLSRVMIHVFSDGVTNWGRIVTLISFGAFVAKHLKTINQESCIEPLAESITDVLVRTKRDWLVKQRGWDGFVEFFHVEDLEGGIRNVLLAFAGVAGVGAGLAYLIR

Structure (SMILES) | pKi [1] | pKi [2] | further results
Cc1cc(OCCCc2c3n(c4c(-c5c(C)nn(C)c5C)c(Cl)ccc24)C[C@H](C)N(Cc2ccc(C(=O)O)cc2)C3=O)cc(C)c1Cl | 7.27 | 8.02 | 
Cc1cc(OCCCc2c3n(c4c(-c5c(C)nn(C)c5C)c(Cl)ccc24)C[C@H](C)N(Cc2cccc(C(=O)O)c2)C3=O)cc(C)c1Cl | 7.01 | 8.00 | 
Cc1cc(OCCCc2c3n(c4c(-c5c(C)nn(C)c5C)c(Cl)ccc24)[C@@H](C)CN(Cc2ccc(C(=O)O)cc2)C3=O)cc(C)c1Cl | 6.72 | 7.46 | 
Cc1cc(OCCCc2c3n(c4c(-c5c(C)nn(C)c5C)c(Cl)ccc24)CCN(Cc2ccc(C(=O)O)cc2)C3=O)cc(C)c1Cl | 7.29 | 8.14 | 
Cc1cc(OCCCc2c3n(c4c(-c5c(C)nn(C)c5C)c(Cl)ccc24)[C@H](C)CN(c2cc(C(=O)O)cc4c2ccn4C)C3=O)cc(C)c1Cl |  |  | GI50 [3]: > 12500 nM; pKi [4]: 8.89; pKi [5]: < 4.40; GI50 [6]: 2100 nM; pKi [7]: 6.20; pKi [8]: 8.17
Cc1cc(OCCCc2c3n(c4c(-c5c(C)nn(C)c5C)c(Cl)ccc24)[C@H](C)CN(c2ccc(C(=O)O)cc2)C3=O)cc(C)c1Cl |  |  | GI50 [3]: > 12500 nM; pKi [4]: 8.89; pKi [5]: < 4.40; GI50 [6]: 4000 nM; pKi [7]: 6.16; pKi [8]: 8.35
Cc1cc(OCCCc2c3n(c4c(-c5c(C)nn(C)c5C)c(Cl)ccc24)C(C)CCNC3=O)cc(C)c1Cl (configuration not stated) | < 6.70 | 7.37 | 
Cc1cc(OCCCc2c3n(c4c(-c5c(C)nn(C)c5C)c(Cl)ccc24)CC(C)CN(Cc2cccc(C(=O)O)c2)C3=O)cc(C)c1Cl (configuration not stated) | 6.84 | 7.96 | 
Cc1cc(OCCCc2c3n(c4c(-c5c(C)nn(C)c5C)c(Cl)ccc24)[C@H](C)CN(Cc2ccc(C(=O)O)o2)C3=O)cc(C)c1Cl | 7.59 | 9.00 | 
Cc1cc(OCCCc2c3n(c4c(-c5c(C)nn(C)c5C)c(Cl)ccc24)C[C@@H](C)N(Cc2ccc(C(=O)O)cc2)C3=O)cc(C)c1Cl | 7.28 | 8.74 | 
Cc1cc(OCCCc2c3n(c4c(-c5c(C)nn(C)c5C)c(Cl)ccc24)C[C@H](C)N(Cc2ccc(C(=O)O)o2)C3=O)cc(C)c1Cl | 6.82 | 8.06 | 
Cc1cc(OCCCc2c3n(c4c(-c5c(C)nn(C)c5C)c(Cl)ccc24)CCC(C)N(Cc2cccc(C(=O)O)c2)C3=O)cc(C)c1Cl (configuration not stated) | < 6.70 | 7.92 | 
Cc1cc(OCCCc2c3n(c4c(-c5c(C)nn(C)c5C)c(Cl)ccc24)CC(C)CN(Cc2ccc(C(=O)O)cc2)C3=O)cc(C)c1Cl (configuration not stated) | 7.66 | 8.15 | 
Cc1cc(OCCCc2c3n(c4c(-c5c(C)nn(C)c5C)c(Cl)ccc24)[C@H](C)CN(c2cc(C(=O)O)c4ccn(C)c4c2)C3=O)cc(C)c1Cl |  |  | GI50 [3]: > 12500 nM; pKi [4]: 9.68; pKi [5]: < 4.40; GI50 [6]: 820 nM; pKi [7]: 6.11; pKi [8]: 8.82
Cc1cc(OCCCc2c3n(c4c(-c5c(C)nn(C)c5C)c(Cl)ccc24)[C@H](C)CN(c2cc(C(=O)O)cc4c2OCO4)C3=O)cc(C)c1Cl |  |  | GI50 [3]: > 12500 nM; pKi [4]: 9.38; pKi [5]: 4.60; GI50 [6]: 1700 nM; pKi [7]: 6.20; pKi [8]: 8.85
Cc1cc(OCCCc2c3n(c4c(-c5c(C)nn(C)c5C)c(Cl)ccc24)CC(C)CNC3=O)cc(C)c1Cl (configuration not stated) | 6.82 | 7.38 | 
Cc1cc(OCCCc2c3n(c4c(-c5c(C)nn(C)c5C)c(Cl)ccc24)CCC(C)NC3=O)cc(C)c1Cl (configuration not stated) | < 6.70 | 7.15 | 
Cc1cc(OCCCc2c3n(c4c(-c5c(C)nn(C)c5C)c(Cl)ccc24)[C@H](C)CN(Cc2ccc(C(=O)O)cc2)C3=O)cc(C)c1Cl | 8.17 | 9.11 | 

Structure (SMILES) | pKi [1] | pKi [2] | further results
Cc1cc(OCCCc2c3n(c4c(-c5c(C)nn(C)c5C)c(Cl)ccc24)[C@@H](C)CN(Cc2cccc(C(=O)O)c2)C3=O)cc(C)c1Cl | 6.77 | 7.43 | 
Cc1cc(OCCCc2c3n(c4c(-c5c(C)nn(C)c5C)c(Cl)ccc24)CCCNC3=O)cc(C)c1Cl | 7.00 | 7.92 | 
Cc1cc(OCCCc2c3n(c4c(-c5c(C)nn(C)c5C)c(Cl)ccc24)[C@H](C)CN(c2cccc4c(C(=O)O)cccc24)C3=O)cc(C)c1Cl |  |  | GI50 [3]: 2500 nM; pKi [4]: 9.48; pKi [5]: 4.59; pKi [7]: 6.42; pKi [8]: 9.11
Cc1cc(OCCCc2c3n(c4c(-c5c(C)nn(C)c5C)c(Cl)ccc24)C[C@@H](C)N(Cc2ccc(C(=O)O)o2)C3=O)cc(C)c1Cl | 7.41 | 8.23 | 
Cc1cc(OCCCc2c3n(c4c(-c5c(C)nn(C)c5C)c(Cl)ccc24)CCN(Cc2ccc(C(=O)O)o2)C3=O)cc(C)c1Cl | 6.86 | 8.24 | 
Cc1cc(OCCCc2c3n(c4c(-c5c(C)nn(C)c5C)c(Cl)ccc24)CCC(C)N(Cc2ccc(C(=O)O)o2)C3=O)cc(C)c1Cl (configuration not stated) | 6.92 | 8.09 | 
Cc1cc(OCCCc2c3n(c4c(-c5c(C)nn(C)c5C)c(Cl)ccc24)[C@H](C)CN(c2cccc(C(=O)O)c2)C3=O)cc(C)c1Cl |  |  | GI50 [3]: > 12500 nM; pKi [4]: 8.85; pKi [5]: < 4.40; GI50 [6]: 4400 nM; pKi [7]: 6.00; pKi [8]: 8.59
Cc1cc(OCCCc2c3n(c4c(-c5c(C)nn(C)c5C)c(Cl)ccc24)C[C@@H](C)NC3=O)cc(C)c1Cl | 6.82 | 7.57 | 
Cc1cc(OCCCc2c3n(c4c(-c5c(C)nn(C)c5C)c(Cl)ccc24)CC(C)CN(Cc2ccc(C(=O)O)o2)C3=O)cc(C)c1Cl (configuration not stated) | 7.09 | 8.12 | 
Cc1cc(OCCCc2c3n(c4c(-c5c(C)nn(C)c5C)c(Cl)ccc24)[C@H](C)CN(c2cn(C)c4cc(C(=O)O)ccc24)C3=O)cc(C)c1Cl |  |  | GI50 [3]: > 12500 nM; pKi [4]: 10.09; pKi [5]: < 4.40; GI50 [6]: 290 nM; pKi [7]: 6.30; pKi [8]: 9.42
Cc1cc(OCCCc2c3n(c4c(-c5c(C)nn(C)c5C)c(Cl)ccc24)[C@@H](C)CN(Cc2ccc(C(=O)O)o2)C3=O)cc(C)c1Cl | 6.71 | 7.66 | 
Cc1cc(OCCCc2c3n(c4c(-c5c(C)nn(C)c5C)c(Cl)ccc24)CCNC3=O)cc(C)c1Cl | < 6.70 | 7.46 | 
Cc1cc(OCCCc2c3n(c4c(-c5c(C)nn(C)c5C)c(Cl)ccc24)CCC(C)N(Cc2ccc(C(=O)O)cc2)C3=O)cc(C)c1Cl (configuration not stated) | 7.38 | 8.18 | 
Cc1cc(OCCCc2c3n(c4c(-c5c(C)nn(C)c5C)c(Cl)ccc24)CCN(Cc2cccc(C(=O)O)c2)C3=O)cc(C)c1Cl | 7.28 | 8.02 | 
Cc1cc(OCCCc2c3n(c4c(-c5c(C)nn(C)c5C)c(Cl)ccc24)[C@H](C)CN(Cc2cccc(C(=O)O)c2)C3=O)cc(C)c1Cl | 7.59 | 8.96 | 
Cc1cc(OCCCc2c3n(c4c(-c5c(C)nn(C)c5C)c(Cl)ccc24)C[C@@H](C)N(Cc2cccc(C(=O)O)c2)C3=O)cc(C)c1Cl | 7.17 | 8.68 | 
Cc1cc(OCCCc2c3n(c4c(-c5c(C)nn(C)c5C)c(Cl)ccc24)C[C@H](C)NC3=O)cc(C)c1Cl | 6.84 | 7.14 | 
